Data: PubChem BioAssay (NCI)
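Compound exposure: 48 hours, 5 concentrations, 96-well plates. TGI denotes the concentration required for complete inhibition of growth.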

Experiments:
Test in all cases: growth of human tumour cells (NCI), 48 h
SNB-75 CNS = tested on: SNB-75 CNS
HOP-92 NSCLC = tested on: HOP-92 NSCLC
SNB-19 CNS = tested on: SNB-19 CNS
A549 NSCLC = tested on: A549 NSCLC
ACHN renal = tested on: ACHN renal
UACC-62 melanoma = tested on: UACC-62 melanoma
OVCAR-5 ovarian = tested on: OVCAR-5 ovarian
HCC-2998 colon = tested on: HCC-2998 colon
NCI-H522 lung = tested on: NCI-H522 lung
SK-MEL-5 melanoma = tested on: SK-MEL-5 melanoma
BT-549 breast = tested on: BT-549 breast
U251 CNS = tested on: U251 CNS
MALME-3M melanoma = tested on: MALME-3M melanoma
RPMI-8226 leukemia = tested on: RPMI-8226 leukemia
MDA-MB-435 = tested on: MDA-MB-435
HL-60(TB) leukemia = tested on: HL-60(TB) leukemia
PC-3 prostate = tested on: PC-3 prostate
COLO 205 colon = tested on: COLO 205 colon
SF-295 CNS = tested on: SF-295 CNS
MDA-MB-231 breast = tested on: MDA-MB-231 breast

SMILES	TGI (SNB-75 CNS) [µM]	TGI (HOP-92 NSCLC) [µM]	TGI (SNB-19 CNS) [µM]	TGI (A549 NSCLC) [µM]	TGI (ACHN renal) [µM]	TGI (UACC-62 melanoma) [µM]	TGI (OVCAR-5 ovarian) [µM]	TGI (HCC-2998 colon) [µM]	TGI (NCI-H522 lung) [µM]	TGI (SK-MEL-5 melanoma) [µM]	TGI (BT-549 breast) [µM]	TGI (U251 CNS) [µM]	TGI (MALME-3M melanoma) [µM]	TGI (RPMI-8226 leukemia) [µM]	TGI (MDA-MB-435) [µM]	TGI (HL-60(TB) leukemia) [µM]	TGI (PC-3 prostate) [µM]	TGI (COLO 205 colon) [µM]	TGI (SF-295 CNS) [µM]	TGI (MDA-MB-231 breast) [µM]
CC(=O)n1nc(-c2ccccc2)n(/N=C/c2ccc([N+](=O)[O-])cc2)c1=O	> 100	> 100	> 100	> 100	> 100	> 100	> 100	> 100	> 100	> 100	> 100	> 100	> 100	> 100	> 100	> 100	> 100	> 100	> 100	> 100
COc1nc(C(=O)NNC(=O)c2nc(OC)c3ccccc3c2-c2ccccc2)c(-c2ccccc2)c2ccccc12	> 100		> 100	> 100	> 100	> 100	> 100	> 100	> 100	> 100	> 100	> 100	> 100	> 100	> 100	> 100	> 100	> 100	> 100	> 100
CCn1c(-c2cc(OC)cc(OC)c2)nc2c1C(=O)c1ccccc1C2=O	> 100	> 100	> 100	> 100	> 100	> 100	> 100	> 100	87.9	> 100	> 100	> 100	> 100	> 100	> 100	> 100	> 100	> 100	> 100	> 100
CCc1nc(N)nc(N)c1-c1ccc(Cl)c(Cl)c1	> 100	> 100	> 100	> 100	> 100	> 100	> 100	> 100	> 100	> 100	> 100	> 100	> 100	> 100	> 100	> 100	> 100	> 100	> 100	> 100
O=C(O)c1nc(-c2ccccc2)ncc1-c1nnnn1-c1ccccc1	> 100	> 100	> 100	> 100	> 100	> 100	> 100	> 100	> 100	> 100	> 100	> 100	> 100	> 100	> 100	> 100	> 100	> 100	> 100	> 100
COc1cc(-c2cc(=O)c3c(OC)c(OC)c(OC)c(OC)c3o2)c(OC)c(OC)c1OC	> 100	82.5	> 100	> 100	> 100	49.1	> 100	> 100	94.6	> 100	56.8	> 100	> 100	> 100	> 100	> 100	50.1	> 100	> 100	> 100
Oc1ccc2ccccc2c1/C=C/c1ccc2c(Br)cc(Br)c(O)c2n1	30.8	35.5	25.1	20.5	18.1	24.2	21.7	23.4	14.3	14.5	26.8	21.6	32	41.4	36.2	12.3	18.9	21.9	18.5	23.4
CCOC(CCNCC(OCC)OCC)OCC	> 10	> 10	> 10	> 10	> 10	> 10	> 10	> 10	> 10	> 10	> 10	> 10	> 10	> 10	> 10	> 10	> 10	> 10	> 10	> 10
C=C(C)C(CC=C(C)C)CC12CC(CC=C(C)C)C(C)(C)C(CC=C(C)C)(C(=O)C(Cc3ccc(O)c(O)c3)=C1O)C2=O (configuration not stated)	> 100	> 100	> 100	> 100	> 100	> 100	> 100	> 100	> 100	> 100	> 100	> 100	> 100	> 100	> 100	> 100	> 100	> 100	> 100	> 100
CNc1ccc(OC)cc1S(=O)(=O)c1ccccc1[N+](=O)[O-]	> 100		> 100	> 100	> 100	> 100	> 100	> 100	> 100	> 100	> 100	> 100	> 100	> 100	> 100	> 100	> 100	> 100	> 100	> 100
CCOC(=O)C1=C(C)N(C)C23OC4(C(=O)OC)CC2c2ccccc2C1N3C4=O (configuration not stated)	> 100	> 100	> 100	> 100	> 100	> 100	> 100	> 100	> 100	> 100	> 100	> 100	> 100	> 100	> 100	> 100	> 100	> 100	> 100	> 100
CC1CC(N)=Nc2ccccc2N1 (configuration not stated)	> 100		> 100	> 100	> 100	> 100	> 100	> 100	> 100	> 100	> 100	> 100	> 100	> 100	> 100	> 100	> 100	> 100	> 100	> 100
Cc1nc2ccccc2c(=O)n1NC(=O)c1ccc(CS)cc1	> 100	40.8	> 100	64.5	27		83.9	45.8	27	29.2	46.3	23.3	69.9	> 100	31.3	> 100	19.2	62.9	> 100	84.6
CC(C)(C)c1cc(C(P(=O)(c2ccccc2)c2ccccc2)P(=O)(c2ccccc2)c2ccccc2)cc(C(C)(C)C)c1O	7.39	5.65	> 10	> 8.98	> 10	3.32	> 6.72	4.45	5.26	2.94	> 8.23	6.68	6.38	> 7.73	4.39	> 8.2	7.67	3.31	3.85	5.12
CC[N+](CC)(CCNCC(N)=O)CC(N)=O	> 10	> 10	> 10	> 10	> 10	> 10	> 10	> 10	> 10	> 10	> 10	> 10	> 10	> 10	> 10	> 10	> 10	> 10	> 10	> 10
NC(=O)C(N)Cc1ccc(O)cn1 (configuration not stated)	> 100	> 100	> 100	> 100	> 100		> 100	> 100	> 100	> 100	> 100	> 100	> 100	> 100	> 100	> 100	> 100	> 100	> 100	> 100
S=C(NCc1ccccc1)c1nc[nH]c1C(=S)NCc1ccccc1	19.5	12.3	18.6	15.1	7.51	13.4	21.7	23.6	21.3		27.2	18.4	24.6	35.6	19.6	25.5	20.4	12.9	17.6	22.3
O=C(NCCCCCCNC(=O)c1cccc2ccccc12)Nc1cccc2ccccc12	> 100	> 100	> 100	> 100	> 100	> 100	> 100	> 100	> 100	> 100	> 100	> 100	> 100	> 100	> 100	> 100	> 100	> 100	> 100	> 100
C=C1C[C@@H]2O[C@H]3[C@H]4[C@@H](C[C@@H](C)[C@@H](OC(C)=O)[C@H]42)[C@@H](C)CO[C@@]3(C)[C@H](OC(C)=O)C[C@H]1O	> 100	> 100	> 100	> 100	> 100	> 100	> 100	> 100	> 100	> 100	> 100	> 100	> 100		> 100	36.8	> 100	> 100	> 100	> 100
COc1ccc(C2CC(=O)CC(c3ccc(OC)cc3)C23C(=O)NC(=O)NC3=O)cc1 (configuration not stated)	67.1	78.5	> 100		78.1	> 100	> 100	45.7	60.2	68	> 100	> 100	73		61.6	81	> 100	89	> 100	85
Cc1cccc(-c2nc3ccc([N+](=O)[O-])cc3c(=O)o2)c1	> 100	93		> 100	> 100	> 100	> 100	> 100	> 100	> 100	> 100	> 100	> 100	> 100	> 100	> 100	> 100	> 100	> 100	> 100
CN1C(=O)N/C(=C\c2ccc(S(=O)(=O)NN)cc2)C1=O	> 100	> 100	> 100	> 100	> 100	> 100	> 100	> 100		> 100	> 100	> 100	> 100	> 100	> 100	> 100	> 100	> 100	> 100	> 100
CN(c1ccc(Cl)cc1)S(=O)(=O)c1ccc([N+](=O)[O-])cc1	> 100		> 100	> 100	> 100	> 100	> 100	> 100	> 100	> 100	> 100	> 100	> 100	> 100	> 100	> 100	> 100	> 100	> 100	> 100
O=S(=O)(c1ccccc1)n1c2cc3cccnc3nc2c2cccnc21	> 100	> 100	> 100	> 100	> 100		> 100	> 100	> 100	> 100	> 100	> 100	> 100	56.6	60	48.1	> 100	> 100	> 100	> 100
